Measured values as given in patent publication US12427210B2, “Compounds comprising a fibroblast activation protein ligand and use thereof” (priority 2019, dated 2025).

Key:
Matrix metalloprotease1 = molecular target: T1, Matrix metalloprotease1 (Homo sapiens, UniProt P03956); details: 1 μM
T1 sequence (P03956 100-469): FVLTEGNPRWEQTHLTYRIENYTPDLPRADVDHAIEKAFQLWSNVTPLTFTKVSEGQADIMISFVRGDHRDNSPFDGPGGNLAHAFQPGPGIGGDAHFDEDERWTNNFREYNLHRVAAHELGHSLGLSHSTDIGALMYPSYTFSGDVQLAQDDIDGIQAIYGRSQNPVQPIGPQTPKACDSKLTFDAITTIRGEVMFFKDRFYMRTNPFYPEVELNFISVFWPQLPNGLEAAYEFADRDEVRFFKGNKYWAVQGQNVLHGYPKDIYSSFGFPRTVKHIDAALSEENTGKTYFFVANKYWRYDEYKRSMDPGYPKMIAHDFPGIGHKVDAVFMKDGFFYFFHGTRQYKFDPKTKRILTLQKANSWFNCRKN

[1] = molecular target: T2, Matrix metalloprotease 9 (mutant Q279R) (Homo sapiens, UniProt P14780, Q279R); details: 100 nM
T2 sequence (P14780 94-707 Q279R): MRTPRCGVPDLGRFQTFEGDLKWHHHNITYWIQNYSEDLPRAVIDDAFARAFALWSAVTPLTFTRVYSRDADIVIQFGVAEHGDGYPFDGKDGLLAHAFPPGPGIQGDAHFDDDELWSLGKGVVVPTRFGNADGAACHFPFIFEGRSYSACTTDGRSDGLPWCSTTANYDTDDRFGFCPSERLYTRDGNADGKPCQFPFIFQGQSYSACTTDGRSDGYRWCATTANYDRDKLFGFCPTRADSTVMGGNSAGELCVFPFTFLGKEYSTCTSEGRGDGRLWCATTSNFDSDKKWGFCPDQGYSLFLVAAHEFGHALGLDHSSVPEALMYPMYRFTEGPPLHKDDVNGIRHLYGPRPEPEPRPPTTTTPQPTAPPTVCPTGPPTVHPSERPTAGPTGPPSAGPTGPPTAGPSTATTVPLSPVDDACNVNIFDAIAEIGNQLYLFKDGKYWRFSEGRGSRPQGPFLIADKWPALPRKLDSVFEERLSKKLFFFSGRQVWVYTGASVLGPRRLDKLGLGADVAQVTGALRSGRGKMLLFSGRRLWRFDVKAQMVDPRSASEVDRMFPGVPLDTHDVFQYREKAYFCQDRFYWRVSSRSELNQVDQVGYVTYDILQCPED

Matrix metalloprotease 2 = molecular target: T3, Matrix metalloprotease 2 (Homo sapiens, UniProt P08253); details: 100 nM
T3 sequence (P08253 110-660): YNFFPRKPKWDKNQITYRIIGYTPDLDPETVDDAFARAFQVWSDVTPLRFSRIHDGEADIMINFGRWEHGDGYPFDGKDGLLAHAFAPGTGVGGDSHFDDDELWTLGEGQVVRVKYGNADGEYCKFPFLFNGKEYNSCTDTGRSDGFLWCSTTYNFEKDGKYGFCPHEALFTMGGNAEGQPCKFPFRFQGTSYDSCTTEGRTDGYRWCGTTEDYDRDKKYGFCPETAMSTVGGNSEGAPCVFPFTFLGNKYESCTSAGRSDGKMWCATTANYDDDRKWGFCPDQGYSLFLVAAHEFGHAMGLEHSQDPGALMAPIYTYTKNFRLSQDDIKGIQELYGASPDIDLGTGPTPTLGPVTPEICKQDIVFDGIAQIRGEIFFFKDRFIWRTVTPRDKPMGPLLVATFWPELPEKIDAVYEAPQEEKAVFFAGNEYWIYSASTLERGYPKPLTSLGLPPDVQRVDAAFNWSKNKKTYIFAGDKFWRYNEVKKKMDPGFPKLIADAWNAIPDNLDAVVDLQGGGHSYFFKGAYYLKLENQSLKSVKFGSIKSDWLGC

COc1ccc(S(=O)(=O)N(CC(=O)NO)CC(C)C)cc1 [NNGH]
Percentage inhibition (%), Reference (Matrix metalloprotease1): 87%
Percentage inhibition (%), Reference [1]: 92%
Percentage inhibition (%), Reference (Matrix metalloprotease 2): 95%
